Square brackets hold non-standard residues; d marks the D form. Ends that are not written are not given here. Dopa = N[C@@H](Cc1ccc(O)c(O)c1)C(=O)O; Hyp = O=C(O)[C@@H]1C[C@@H](O)CN1
Key:
Assay type in all cases: in vivo
BALB/c mice = assay: Mouse ear swelling model (xylene); details: for Swelling rate: about 0.1 g on right ear 1 h before xylene; for effect on edema caused by inflammation: hydrogels 0.5 and 1 mg/g
Procedure: 30 Health male BALB/c mice with 6-8 weeks old and average body weight of 18-25 g were supplied by Changzhou Cvens Experimental Animal Co., Ltd. and housed and cared for about 1 week prior to the experiment. […] The mice were randomly divided into 6 groups as described in Table 8, with 5 mice in each group. Compound A and Compound B were dissolved at concentrations indicated in Table 8 below (L=low dose, M=medium dose, H=high dose).
All excipients were obtained from Sinopharm Chemical Reagent Co. Ltd. The gels were made with water for injection.
Dexamethasone acetate cream (Dex cream; 5 mg/10 g (which means that there was 5 mg Dex contained in 10 g of the cream), Fuyuan Pharmaceutical Co., Ltd., Anhui, China) was used as positive control.
The left ear of each mouse was used as an autologous control. The right ear of each mouse was treated with the above compounds in the stated concentrations (Table 8).
About 0.1 g of the various gels, and Dex cream were applied to the right ear of mice in each group, both inside and outside. The blank gel base was applied on the ears in the model groups. After 1 hour, 20 μL of xylene (Shanghai Aladdin Bio-Chem Technology Co., Ltd.) was applied to the same ear of each mouse.
The mice were sacrificed by cervical dislocation 40 minutes after xylene application. The left and right ears were cut off. An EMS skin biopsy punch with a diameter of 8 mm was used to take a piece of the ear from the same site on both ears. The weights were recorded, and the swelling rate was calculated as a percentage according to the following formula:
(right ear weight−left ear weight)/left ear weight×100

Sprague Dawley (SD) rats = assay: Croton oil-induced anal swelling model in rats I (Evans blue content); details: gel 0.5 and 1 mg/g, 200 μL twice a day for three days
Procedure: A croton oil mixture was prepared by mixing one part distilled water, four parts of pyridine (Nanjing Chemical Reagent Co., Ltd.), five parts of ether (China Pharmaceutical Group Chemical Reagents Co., Ltd.) and ten parts of 6% croton oil (Shanghai Yuanye Biotechnology Co., Ltd.) ether solution.
6-8 weeks old Sprague Dawley (SD) rats with average body weights of 180-220 g were supplied by Changzhou Cvens Experimental Animal Co. Ltd. (Changzhou, Jiangsu Province, China), half male and half female. Prior to any experiments being conducted, rats were housed under standardized conditions (at a constant temperature of 22±2° C., with alternating 12-hour periods of light and darkness) and were fed on a standard mouse diet with water, for about a week.
56 rats were randomly divided into 7 groups (as shown in Table 11 below), with 8 rats in each group. Compound A, Compound B and MaYinglong hemorrhoids ointment were dissolved at concentrations indicated in Table 11 below (L=low dose, M=medium dose, H=high dose).
The rats were anesthetized by isoflurane (China Pharmaceutical Group Chemical Reagents Co., Ltd.) inhalation. 75% alcohol cotton ball was used to disinfect the skin around the anus. […]
All samples were transferred to a 55° C. water bath or a heat block. […] Absorbance was measured at 610 nm, using 500 μL of formamide as a blank. […]

db/db mice = assay: Diabetic wound model, VEGF and TGF-β1 content in wound tissues; details: topical once daily; 1.65, 16.45, 164.5 μg/wound/day; vs model group
Procedure: 8 to 12 week old male db/db mice (C57BL/KsJ-db/db, with a body weight of 35-45 g/mouse) supplied by Changzhou Cvens Experimental Animal Co. Ltd. Prior to any experiments being conducted, mice were housed under standardized conditions at a constant temperature of 22±2° C., with alternating 12-hour periods of light and darkness, and were fed on a standard mouse diet with water, for about a week.
General anesthesia was induced using intraperitoneal 3% chloral hydrate (Sinopharm Chemical Reagent Co., Ltd.; 1 mL/10 g of body weight). The hair on the back was shaved by a baby hair shaver and depilated with cream. The skin area was wiped and sterilized with 75% alcohol twice.
An EMS skin biopsy punch with an 18 mm diameter was used to make a round wound on the back. The full thickness of skin was removed, and the depth of the wound reached the fascia. Wounds were left open without a suture.
The model group was given same amount of normal saline. There were 12 mice in each group apart from the control group, which had 8 mice. The skin pieces taken during wound creation were used as the samples at Day 7 for the control group.
Recombinant Human Epidermal Growth Factor (rhEGF) was purchased and prepared according to the instructions by the manufacturer. The lyophilized rhEGF powder (100000 IU/vial) was dissolved in 20 mL of normal saline to make a solution with a concentration of 5000 IU/mL. The working dose of rhEGF for this experiment was 1285 IU/wound.
Compound A and Compound B were dissolved in saline at concentrations indicated in Table 7 below (L=low dose, M=medium dose, H=high dose). 50 μL of each solution was applied to the wound surfaces every day.
Vascular endothelial growth factor (VEGF) and transforming growth factor-beta 1 (TGF-β1) play prominent roles in wound healing process. VEGF and TGF-β1 are often co-expressed in tissues in which angiogenesis occurs.

Substance | Swelling rate (BALB/c mice; hydrogel 0.5 mg/g (L)) [%] | Swelling rate (BALB/c mice; hydrogel 1 mg/g (H)) [%] | effect on edema caused by inflammation (BALB/c mice) | inflammatory swelling, EB content in rectal and anal tissues (FIG. 5) (Sprague Dawley (SD) rats) | content of TGF-β1 in wound tissues (FIG. 3) (db/db mice) | content of VEGF in wound tissues (FIG. 2) (db/db mice)
{[(Ala-Lys-Pro-Ser-Tyr-Hyp-Hyp-Thr-DOPA-Lys)2-Lys]2-Lys}2-Lys (AKPSY[Hyp][Hyp]T[Dopa]KKKK; also: branched lysine dendrimer {[(peptide)2-Lys]2-Lys}2-Lys) [Compound B] | 43 | 38 | significantly eliminate the edema caused by inflammation | may reduce inflammatory swelling caused by croton oil application | stimulated the production | stimulated the production
{[(Dopa-Ala-Lys-Pro-Ser-Tyr-Hyp-Hyp-Thr-Tyr-Lys)2-Lys]2-Lys}2-Lys ([Dopa]AKPSY[Hyp][Hyp]TYKKKK; also: branched lysine dendrimer {[(peptide)2-Lys]2-Lys}2-Lys) [Compound A] | 63 | 43 | significantly eliminate the edema caused by inflammation | may reduce inflammatory swelling caused by croton oil application | stimulated the production | stimulated the production
